Experimental data as given in the kinase profiling compilation of Christmann-Franck et al. (2016).

Key:
Assay in all cases: KINOMEscan competition binding
Settings in all cases: compound 0.1 µM
ABL1 (human) = ABL1 (human) (UniProt P00519)
[1] = tested on: ABL1 (human), P00519 [F317L]
ABL2 (human) = ABL2 (human) (UniProt P42684)
AURKA (human) = AURKA (human) (UniProt O14965)
CDK4 CCND3 (human) = CDK4 CCND3 (human) (UniProt P11802+P30281)
DCLK1 (human) = DCLK1 (human) (UniProt O15075)
DYRK2 (human) = DYRK2 (human) (UniProt Q92630)
[2] = tested on: EGFR (human), P00533 [752-759 del]
FER (human) = FER (human) (UniProt P16591)
FGFR4 (human) = FGFR4 (human) (UniProt P22455)
FLT4 (human) = FLT4 (human) (UniProt P35916)
HIPK2 (human) = HIPK2 (human) (UniProt Q9H2X6)
Sequence of HIPK2 (human) (Q9H2X6 whole entry, looked up): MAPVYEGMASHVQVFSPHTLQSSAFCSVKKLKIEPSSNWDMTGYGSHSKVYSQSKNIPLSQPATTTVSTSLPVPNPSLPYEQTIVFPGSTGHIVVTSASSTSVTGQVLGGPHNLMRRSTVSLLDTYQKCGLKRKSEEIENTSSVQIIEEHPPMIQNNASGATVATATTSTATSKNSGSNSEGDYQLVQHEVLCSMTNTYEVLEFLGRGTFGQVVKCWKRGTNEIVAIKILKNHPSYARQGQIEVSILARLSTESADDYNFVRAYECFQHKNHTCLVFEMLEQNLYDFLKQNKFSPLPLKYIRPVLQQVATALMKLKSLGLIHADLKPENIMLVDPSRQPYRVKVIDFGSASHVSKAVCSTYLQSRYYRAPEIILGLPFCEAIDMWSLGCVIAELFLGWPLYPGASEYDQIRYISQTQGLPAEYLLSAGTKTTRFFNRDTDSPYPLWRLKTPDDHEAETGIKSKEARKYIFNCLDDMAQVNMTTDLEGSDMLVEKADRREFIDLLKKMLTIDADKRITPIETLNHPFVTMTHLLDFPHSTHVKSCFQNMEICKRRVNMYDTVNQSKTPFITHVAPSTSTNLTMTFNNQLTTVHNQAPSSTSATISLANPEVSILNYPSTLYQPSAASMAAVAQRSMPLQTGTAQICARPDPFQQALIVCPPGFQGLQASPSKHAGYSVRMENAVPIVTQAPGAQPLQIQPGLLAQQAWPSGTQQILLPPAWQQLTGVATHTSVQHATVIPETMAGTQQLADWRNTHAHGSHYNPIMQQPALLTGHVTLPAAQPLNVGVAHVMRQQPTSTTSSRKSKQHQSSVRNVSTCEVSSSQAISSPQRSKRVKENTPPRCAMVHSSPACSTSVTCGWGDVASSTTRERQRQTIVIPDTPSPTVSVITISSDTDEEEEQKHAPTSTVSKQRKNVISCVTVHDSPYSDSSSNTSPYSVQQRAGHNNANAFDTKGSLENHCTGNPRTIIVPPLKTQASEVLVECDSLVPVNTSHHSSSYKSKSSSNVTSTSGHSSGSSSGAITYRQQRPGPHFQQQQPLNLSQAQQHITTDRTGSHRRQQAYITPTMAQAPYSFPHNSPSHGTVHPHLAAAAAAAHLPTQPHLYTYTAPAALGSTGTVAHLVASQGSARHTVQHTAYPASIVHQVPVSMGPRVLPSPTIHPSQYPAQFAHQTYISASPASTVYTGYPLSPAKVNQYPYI

[3] = target: JAK2 JH1 catalytic (human) (UniProt O60674)
[4] = tested on: KIT (human), P10721 [A829P]
[5] = tested on: KIT (human), P10721 [V559D]
LIMK1 (human) = LIMK1 (human) (UniProt P53667)
MAP2K6 (human) = MAP2K6 (human) (UniProt P52564)
MAP3K4 (human) = MAP3K4 (human) (UniProt Q9Y6R4)
MAPK1 (human) = MAPK1 (human) (UniProt P28482)
MAPK4 (human) = MAPK4 (human) (UniProt P31152)
MARK4 (human) = MARK4 (human) (UniProt Q96L34)
MKNK2 (human) = MKNK2 (human) (UniProt Q9HBH9)
Sequence of MKNK2 (human) (Q9HBH9 whole entry, looked up): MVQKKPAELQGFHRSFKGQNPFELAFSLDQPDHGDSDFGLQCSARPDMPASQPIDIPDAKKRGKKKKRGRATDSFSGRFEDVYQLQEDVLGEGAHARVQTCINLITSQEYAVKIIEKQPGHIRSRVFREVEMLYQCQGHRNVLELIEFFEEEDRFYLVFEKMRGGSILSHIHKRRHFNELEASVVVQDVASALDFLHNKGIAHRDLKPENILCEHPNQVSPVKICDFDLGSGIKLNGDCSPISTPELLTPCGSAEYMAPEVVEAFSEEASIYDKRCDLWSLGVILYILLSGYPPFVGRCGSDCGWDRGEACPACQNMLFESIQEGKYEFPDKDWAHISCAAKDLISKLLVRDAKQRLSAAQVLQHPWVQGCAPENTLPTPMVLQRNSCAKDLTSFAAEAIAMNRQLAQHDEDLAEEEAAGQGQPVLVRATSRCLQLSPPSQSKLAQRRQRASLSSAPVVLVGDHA

MYLK3 (human) = MYLK3 (human) (UniProt Q32MK0)
MYO3B (human) = MYO3B (human) (UniProt Q8WXR4)
Sequence of MYO3B (human) (Q8WXR4 whole entry, looked up): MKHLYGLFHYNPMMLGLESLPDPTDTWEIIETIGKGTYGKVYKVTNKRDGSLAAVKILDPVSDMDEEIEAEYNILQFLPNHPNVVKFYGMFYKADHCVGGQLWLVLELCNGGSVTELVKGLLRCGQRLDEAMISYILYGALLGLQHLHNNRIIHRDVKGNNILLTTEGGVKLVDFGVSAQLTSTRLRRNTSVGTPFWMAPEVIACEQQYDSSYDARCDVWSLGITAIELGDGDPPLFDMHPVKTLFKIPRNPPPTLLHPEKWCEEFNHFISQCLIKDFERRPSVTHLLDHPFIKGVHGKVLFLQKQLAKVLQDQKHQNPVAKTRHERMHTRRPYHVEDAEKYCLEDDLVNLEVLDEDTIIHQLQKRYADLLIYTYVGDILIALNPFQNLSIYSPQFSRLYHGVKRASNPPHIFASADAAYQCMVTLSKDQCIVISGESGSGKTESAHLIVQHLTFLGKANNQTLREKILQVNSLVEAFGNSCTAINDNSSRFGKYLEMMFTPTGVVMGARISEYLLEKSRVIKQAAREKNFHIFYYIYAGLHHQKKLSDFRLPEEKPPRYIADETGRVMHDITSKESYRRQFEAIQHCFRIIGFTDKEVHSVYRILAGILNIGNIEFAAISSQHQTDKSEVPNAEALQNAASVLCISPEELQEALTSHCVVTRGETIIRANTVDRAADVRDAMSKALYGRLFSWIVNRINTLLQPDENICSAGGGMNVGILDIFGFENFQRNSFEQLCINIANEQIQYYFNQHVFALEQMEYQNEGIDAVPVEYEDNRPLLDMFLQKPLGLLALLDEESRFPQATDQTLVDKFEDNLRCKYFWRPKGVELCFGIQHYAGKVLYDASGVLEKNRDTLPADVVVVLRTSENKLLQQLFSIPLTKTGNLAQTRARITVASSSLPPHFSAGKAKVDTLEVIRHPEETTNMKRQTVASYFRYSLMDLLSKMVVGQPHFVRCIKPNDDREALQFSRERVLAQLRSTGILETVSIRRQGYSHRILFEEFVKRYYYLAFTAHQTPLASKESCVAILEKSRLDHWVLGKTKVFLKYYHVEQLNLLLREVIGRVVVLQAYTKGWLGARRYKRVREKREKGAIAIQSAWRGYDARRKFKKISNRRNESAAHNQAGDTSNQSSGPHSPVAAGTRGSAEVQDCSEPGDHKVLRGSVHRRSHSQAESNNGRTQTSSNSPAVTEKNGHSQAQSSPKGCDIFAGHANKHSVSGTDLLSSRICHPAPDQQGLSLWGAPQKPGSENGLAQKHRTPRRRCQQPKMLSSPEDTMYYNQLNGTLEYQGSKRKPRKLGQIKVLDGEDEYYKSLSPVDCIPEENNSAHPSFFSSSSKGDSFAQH

[6] = tested on: PIK3CA (human), P42336 [E542K]
PIM3 (human) = PIM3 (human) (UniProt Q86V86)
PKMYT1 (human) = PKMYT1 (human) (UniProt Q99640)
PRKD2 (human) = PRKD2 (human) (UniProt Q9BZL6)
PTK6 (human) = PTK6 (human) (UniProt Q13882)
RIPK4 (human) = RIPK4 (human) (UniProt P57078)
ROS1 (human) = ROS1 (human) (UniProt P08922)
RPS6KA1 KD2 (human) = RPS6KA1 KD2 (human) (UniProt Q15418)
RPS6KA3 KD1 (human) = RPS6KA3 KD1 (human) (UniProt P51812)
Sequence of RPS6KA3 KD1 (human) (P51812 whole entry, looked up): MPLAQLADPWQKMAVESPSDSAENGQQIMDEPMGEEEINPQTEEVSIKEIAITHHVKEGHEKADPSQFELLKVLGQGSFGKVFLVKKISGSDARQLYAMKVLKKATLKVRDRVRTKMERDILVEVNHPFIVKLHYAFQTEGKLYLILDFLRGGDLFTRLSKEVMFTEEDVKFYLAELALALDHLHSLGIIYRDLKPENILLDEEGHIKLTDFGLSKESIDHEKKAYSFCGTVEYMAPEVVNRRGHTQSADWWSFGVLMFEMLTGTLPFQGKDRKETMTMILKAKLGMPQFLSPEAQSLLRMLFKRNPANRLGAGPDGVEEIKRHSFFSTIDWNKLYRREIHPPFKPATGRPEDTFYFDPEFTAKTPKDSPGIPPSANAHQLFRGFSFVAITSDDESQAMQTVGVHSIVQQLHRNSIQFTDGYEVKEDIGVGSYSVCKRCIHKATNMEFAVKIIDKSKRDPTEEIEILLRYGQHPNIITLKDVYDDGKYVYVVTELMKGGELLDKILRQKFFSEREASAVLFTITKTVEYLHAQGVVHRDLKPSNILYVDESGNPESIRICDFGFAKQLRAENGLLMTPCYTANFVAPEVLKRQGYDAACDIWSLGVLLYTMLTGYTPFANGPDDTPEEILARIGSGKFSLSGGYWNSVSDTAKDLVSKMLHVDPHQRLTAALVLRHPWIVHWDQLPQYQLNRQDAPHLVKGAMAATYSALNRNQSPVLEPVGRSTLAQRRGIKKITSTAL

RPS6KB1 (human) = RPS6KB1 (human) (UniProt P23443)
SGK3 (human) = SGK3 (human) (UniProt Q96BR1)
SRMS (human) = SRMS (human) (UniProt Q9H3Y6)
SRPK1 (human) = SRPK1 (human) (UniProt Q96SB4)
STK32A (human) = STK32A (human) (UniProt Q8WU08)
WNK1 (human) = WNK1 (human) (UniProt Q9H4A3)
YES1 (human) = YES1 (human) (UniProt P07947)

Sequence of ABL2 (human) (P42684 whole entry, looked up): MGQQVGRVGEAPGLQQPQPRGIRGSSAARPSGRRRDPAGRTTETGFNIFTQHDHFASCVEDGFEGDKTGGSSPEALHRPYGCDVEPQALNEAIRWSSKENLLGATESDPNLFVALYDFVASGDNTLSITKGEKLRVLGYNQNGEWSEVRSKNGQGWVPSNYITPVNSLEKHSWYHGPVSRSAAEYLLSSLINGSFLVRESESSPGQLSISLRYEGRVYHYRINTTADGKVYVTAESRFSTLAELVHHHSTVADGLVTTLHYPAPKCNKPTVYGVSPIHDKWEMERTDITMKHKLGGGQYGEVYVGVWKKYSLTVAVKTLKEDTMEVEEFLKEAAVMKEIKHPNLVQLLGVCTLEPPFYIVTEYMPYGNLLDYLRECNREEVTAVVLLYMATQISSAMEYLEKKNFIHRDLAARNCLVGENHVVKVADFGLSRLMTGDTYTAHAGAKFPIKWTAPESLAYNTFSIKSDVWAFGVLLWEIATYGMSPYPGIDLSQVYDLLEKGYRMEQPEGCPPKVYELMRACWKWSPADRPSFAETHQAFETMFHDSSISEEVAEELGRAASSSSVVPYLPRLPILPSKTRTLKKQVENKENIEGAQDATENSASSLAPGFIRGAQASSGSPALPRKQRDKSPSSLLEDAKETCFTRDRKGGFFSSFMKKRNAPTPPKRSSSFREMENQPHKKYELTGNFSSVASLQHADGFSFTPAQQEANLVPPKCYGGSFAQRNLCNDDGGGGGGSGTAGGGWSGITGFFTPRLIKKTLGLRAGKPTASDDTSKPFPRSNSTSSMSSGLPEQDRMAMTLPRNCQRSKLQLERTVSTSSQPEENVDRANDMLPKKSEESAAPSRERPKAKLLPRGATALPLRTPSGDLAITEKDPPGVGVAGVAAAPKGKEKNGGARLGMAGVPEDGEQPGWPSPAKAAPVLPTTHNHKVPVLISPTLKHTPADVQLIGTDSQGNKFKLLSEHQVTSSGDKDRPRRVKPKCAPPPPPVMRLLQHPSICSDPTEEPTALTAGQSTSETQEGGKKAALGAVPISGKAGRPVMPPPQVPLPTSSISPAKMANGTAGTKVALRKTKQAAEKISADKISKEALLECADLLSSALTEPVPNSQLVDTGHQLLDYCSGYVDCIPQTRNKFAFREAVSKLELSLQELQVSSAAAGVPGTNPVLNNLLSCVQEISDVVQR

CCc1ccc(C(=O)Nc2cc(CN3CCN(C)CC3)cc(C(F)(F)F)c2)cc1C#Cc1cnc2ccnn2c1
kinase still bound, per cent of control (ABL1 (human)): 100% | kinase still bound, per cent of control [1]: 86% | kinase still bound, per cent of control (ABL2 (human)): 39% | kinase still bound, per cent of control (AURKA (human)): 100% | kinase still bound, per cent of control (CDK4 CCND3 (human)): 100% | kinase still bound, per cent of control (DCLK1 (human)): 100% | kinase still bound, per cent of control (DYRK2 (human)): 86% | kinase still bound, per cent of control [2]: 100% | kinase still bound, per cent of control (FER (human)): 70% | kinase still bound, per cent of control (FGFR4 (human)): 86% | kinase still bound, per cent of control (FLT4 (human)): 85% | kinase still bound, per cent of control (HIPK2 (human)): 100% | kinase still bound, per cent of control [3]: 100% | kinase still bound, per cent of control [4]: 69% | kinase still bound, per cent of control [5]: 24% | kinase still bound, per cent of control (LIMK1 (human)): 85% | kinase still bound, per cent of control (MAP2K6 (human)): 100% | kinase still bound, per cent of control (MAP3K4 (human)): 100% | kinase still bound, per cent of control (MAPK1 (human)): 100% | kinase still bound, per cent of control (MAPK4 (human)): 90% | kinase still bound, per cent of control (MARK4 (human)): 71% | kinase still bound, per cent of control (MKNK2 (human)): 100% | kinase still bound, per cent of control (MYLK3 (human)): 100% | kinase still bound, per cent of control (MYO3B (human)): 100% | kinase still bound, per cent of control [6]: 100% | kinase still bound, per cent of control (PIM3 (human)): 77% | kinase still bound, per cent of control (PKMYT1 (human)): 100% | kinase still bound, per cent of control (PRKD2 (human)): 100% | kinase still bound, per cent of control (PTK6 (human)): 100% | kinase still bound, per cent of control (RIPK4 (human)): 100% | kinase still bound, per cent of control (ROS1 (human)): 78% | kinase still bound, per cent of control (RPS6KA1 KD2 (human)): 100% | kinase still bound, per cent of control (RPS6KA3 KD1 (human)): 100% | kinase still bound, per cent of control (RPS6KB1 (human)): 100% | kinase still bound, per cent of control (SGK3 (human)): 100% | kinase still bound, per cent of control (SRMS (human)): 99% | kinase still bound, per cent of control (SRPK1 (human)): 100% | kinase still bound, per cent of control (STK32A (human)): 69% | kinase still bound, per cent of control (WNK1 (human)): 100% | kinase still bound, per cent of control (YES1 (human)): 70%
